According to the CheMixHub viscosity set:

Experiment: xn = mol fraction of the nth substance listed

OCCOCCOCCO + CCCC(C)O
viscosity [mPa·s], 100 kPa
Details | x1 = 0.0809 | x1 = 0.16 | x1 = 0.2401 | x1 = 0.35 | x1 = 0.44 | x1 = 0.5601 | x1 = 0.6499 | x1 = 0.7401 | x1 = 0.8501 | x1 = 0.9401
293.15 K | 4.98 | 6.16 | 7.62 | 10.23 | 12.89 | 17.73 | 22.03 | 27.33 | 34.9 | 42.55
298.15 K | 4.35 | 5.48 | 6.71 | 8.84 | 10.83 | 14.35 | 17.55 | 21.36 | 27.16 | 32.88
303.15 K | 3.57 | 4.56 | 5.62 | 7.33 | 8.95 | 11.76 | 14.33 | 17.37 | 21.79 | 26.06
308.15 K | 3.03 | 3.84 | 4.79 | 6.2 | 7.55 | 9.77 | 11.78 | 14.16 | 17.58 | 21.01
313.15 K | 2.48 | 3.16 | 3.93 | 5.1 | 6.26 | 8.19 | 9.89 | 11.86 | 14.62 | 17.22
318.15 K | 2.24 | 2.86 | 3.49 | 4.48 | 5.4 | 6.92 | 8.23 | 9.81 | 12.04 | 14.18
323.15 K | 1.94 | 2.47 | 3.03 | 3.87 | 4.64 | 5.92 | 6.99 | 8.27 | 10.15 | 11.91

CCn1cc[n+](C)c1.F[B-](F)(F)F + OCCO
Details | viscosity [mPa·s]
313.15 K, 101 kPa, x1 = 0.7003 | 10.55
323.15 K, 100 kPa, x1 = 0.717 | 9.915
323.15 K, 101 kPa, x1 = 0.7997 | 9.913

c1cc[nH]c1 + c1ccccc1
viscosity [mPa·s], 101 kPa
Details | x1 = 0.05439 | x1 = 0.06772 | x1 = 0.1099
303.15 K | 0.576 | 0.579 | 0.59
323.15 K | 0.445 | 0.452 | 0.459

Cc1ccccc1C + CC(C)(C)O
308.15 K, 101 kPa
Details | viscosity [mPa·s]
x2 = 0.0632 | 0.669
x2 = 0.1246 | 0.679
x2 = 0.204 | 0.677
x2 = 0.2992 | 0.674
x2 = 0.3725 | 0.731
x2 = 0.4258 | 0.777
x2 = 0.4948 | 0.814
x2 = 0.5942 | 0.908
x2 = 0.6887 | 1.028
x2 = 0.7935 | 1.376
x2 = 0.9065 | 1.962

CCOC(=O)OCC + CC(=O)N(C)C
298.15 K, 101 kPa
Details | viscosity [mPa·s]
x1 = 0.1371 | 0.925
x1 = 0.2045 | 0.912
x1 = 0.2821 | 0.896
x1 = 0.3603 | 0.881
x1 = 0.4462 | 0.865
x1 = 0.5333 | 0.849
x1 = 0.6265 | 0.831
x1 = 0.7265 | 0.811
x1 = 0.7839 | 0.8
x1 = 0.8296 | 0.79
x1 = 0.8887 | 0.778

CCn1cc[n+](C)c1.F[B-](F)(F)F + O
Details | viscosity [mPa·s]
293.15 K, 101 kPa, x2 = 0.3047 | 19.25

CCOC(=O)OCC + CCCCCCCCCCCC
298.15 K, 101.3 kPa
Details | viscosity [mPa·s]
x1 = 0.0152 | 1.301
x1 = 0.0779 | 1.228
x1 = 0.1327 | 1.18
x1 = 0.1841 | 1.133
x1 = 0.2993 | 1.047
x1 = 0.4701 | 0.942
x1 = 0.6163 | 0.86
x1 = 0.7539 | 0.793
x1 = 0.9071 | 0.745
x2 = 0.014 | 0.741

CCOC(=O)OCC + CCCCCCCC
298.15 K, 101.3 kPa
Details | viscosity [mPa·s]
x1 = 0.0224 | 0.517
x1 = 0.0828 | 0.509
x1 = 0.1137 | 0.508
x1 = 0.1181 | 0.508
x1 = 0.1535 | 0.508
x1 = 0.1753 | 0.507
x1 = 0.3802 | 0.529
x1 = 0.4893 | 0.549
x1 = 0.5834 | 0.572
x1 = 0.6904 | 0.6
x1 = 0.8119 | 0.645
x1 = 0.8465 | 0.659
x1 = 0.8953 | 0.681
x1 = 0.9679 | 0.727

CC(C)[C@@H]1CC[C@@H](C)C[C@H]1O + CCCO
Details | viscosity [mPa·s]
298.15 K, 101.33 kPa, x1 = 0.5 | 28.39

CCCCCCCCCCCC[P+](CC)(CC)CC.N#Cc1ccc[n-]1 + OCC(O)CO
100 kPa
Details | viscosity [mPa·s]
293.15 K, x1 = 0.542 | 941
293.15 K, x1 = 0.677 | 861
298.15 K, x1 = 0.003 | 864
298.15 K, x1 = 0.01 | 905
298.15 K, x1 = 0.343 | 974
298.15 K, x1 = 0.426 | 715
303.15 K, x1 = 0.041 | 788
303.15 K, x1 = 0.056 | 912
303.15 K, x1 = 0.196 | 957
303.15 K, x1 = 0.292 | 734

Cc1ccc(Cl)cc1 + Nc1cccc(Cl)c1
viscosity [mPa·s], 100 kPa
Details | x2 = 0.0757 | x2 = 0.1649 | x2 = 0.2579 | x2 = 0.3519 | x2 = 0.4697 | x2 = 0.5707 | x2 = 0.6749 | x2 = 0.7826 | x2 = 0.8935
303.15 K | 1.052 | 1.369 | 1.698 | 2.029 | 2.441 | 2.791 | 3.15 | 3.518 | 3.895
308.15 K | 0.968 | 1.253 | 1.549 | 1.847 | 2.217 | 2.531 | 2.853 | 3.184 | 3.521
313.15 K | 0.899 | 1.152 | 1.414 | 1.677 | 2.003 | 2.28 | 2.564 | 2.854 | 3.15
318.15 K | 0.823 | 1.045 | 1.273 | 1.502 | 1.786 | 2.027 | 2.274 | 2.526 | 2.782

Cc1ccc(Cl)cc1 + CCOC(=O)c1ccccc1
viscosity [mPa·s], 101 kPa
Details | 303.15 K | 313.15 K
x2 = 0.0536 | 0.745 | 0.65
x2 = 0.1068 | 0.729 | 0.632
x2 = 0.1858 | 0.73 | 0.629
x2 = 0.2507 | 0.751 | 0.644
x2 = 0.3392 | 0.806 | 0.686
x2 = 0.4157 | 0.876 | 0.739
x2 = 0.4913 | 0.959 | 0.801
x2 = 0.592 | 1.092 | 0.904
x2 = 0.6657 | 1.201 | 0.991
x2 = 0.762 | 1.359 | 1.109
x2 = 0.8333 | 1.484 | 1.206
x2 = 0.907 | – | 1.315
x2 = 0.9071 | 1.623 | –
x2 = 0.9524 | 1.713 | 1.385

CCCCCCCCCCO + CS(C)=O
313 K, 101 kPa
Details | viscosity [mPa·s]
x2 = 0.0732 | 5.748
x2 = 0.2168 | 4.662
x2 = 0.3082 | 4.127
x2 = 0.3986 | 3.711
x2 = 0.5096 | 3.248
x2 = 0.5918 | 2.964
x2 = 0.6951 | 2.596
x2 = 0.8064 | 2.203
x2 = 0.9009 | 1.838

OCCOCCOCCO + CC(C)=O
298.1 K, 101 kPa
Details | viscosity [mPa·s]
x1 = 0.2 | 1.038
x1 = 0.4 | 2.75
x1 = 0.5 | 4.48
x1 = 0.6 | 7.168
x1 = 0.8 | 17.04

CCCCCCCCCCO + CCCCCCC
viscosity [mPa·s], 101.33 kPa
Details | 298.15 K | 308.15 K
x1 = 0.0386 | 0.4346 | 0.3825
x1 = 0.0772 | 0.4872 | 0.4312
x1 = 0.1584 | 0.642 | 0.5562
x1 = 0.2472 | 0.8698 | 0.7324
x1 = 0.3368 | 1.225 | 1.034
x1 = 0.4264 | 1.647 | 1.331
x1 = 0.5326 | 2.338 | 1.903
x1 = 0.6364 | 3.29 | 2.7
x1 = 0.7498 | 5.08 | 3.93
x1 = 0.8055 | 5.926 | 4.829
x1 = 0.8688 | 7.145 | 5.938
x1 = 0.9331 | 8.722 | 6.788

Cl[Si](Cl)(Cl)Cl + CCOC(C)OCC
viscosity [mPa·s], 101 kPa
Details | 303.1 K | 313.1 K
x2 = 0.13 | 0.45 | 0.41
x2 = 0.2026 | 0.45 | 0.413
x2 = 0.3244 | 0.459 | 0.421
x2 = 0.4102 | 0.475 | 0.427
x2 = 0.4927 | 0.492 | 0.442
x2 = 0.5909 | 0.515 | 0.461
x2 = 0.6377 | 0.534 | 0.476
x2 = 0.6703 | 0.538 | 0.484
x2 = 0.71 | 0.552 | 0.49
x2 = 0.7457 | 0.541 | 0.481
x2 = 0.8082 | 0.52 | 0.467
x2 = 0.8385 | 0.492 | 0.447
x2 = 0.8813 | 0.456 | 0.41
x2 = 0.9655 | 0.416 | 0.375

CC(C)[C@@H]1CC[C@@H](C)C[C@H]1O + CC(=O)O
100 kPa, x1 = 0.5
Details | viscosity [mPa·s]
293.15 K | 11.3
298.15 K | 8.691
303.15 K | 6.904
308.15 K | 5.59
313.15 K | 4.564
318.15 K | 3.843
323.15 K | 3.251

CCCCCCCCCCO + CC#N
viscosity [mPa·s], 101 kPa
Details | 298.15 K | 303.15 K | 308.15 K
x2 = 0.0939 | 8.794 | 7.622 | 6.471
x2 = 0.2005 | 6.554 | 5.66 | 4.934
x2 = 0.301 | 4.932 | 4.226 | 3.648
x2 = 0.3902 | 3.872 | 3.394 | 2.877
x2 = 0.4935 | 2.848 | 2.467 | 2.15
x2 = 0.6249 | 1.83 | 1.678 | 1.441
x2 = 0.7216 | 1.302 | 1.189 | 1.053
x2 = 0.7933 | 1.021 | 0.864 | 0.777
x2 = 0.8544 | 0.79 | 0.636 | 0.586
x2 = 0.9006 | 0.548 | 0.51 | 0.479
x2 = 0.9382 | 0.46 | 0.431 | 0.411
x2 = 0.9708 | 0.395 | 0.379 | 0.358

OCCOCCOCCO + C[N+](C)(C)CCO.[Cl-]
Details | viscosity [mPa·s]
298.15 K, 101 kPa, x2 = 0.25 | 72.3

COCCOCCO + ClC=C(Cl)Cl
298.15 K, 101.33 kPa
Details | viscosity [mPa·s]
x1 = 0.0091 | 0.537
x1 = 0.0258 | 0.553
x1 = 0.0362 | 0.567
x1 = 0.0477 | 0.582
x1 = 0.0679 | 0.61
x1 = 0.0896 | 0.643
x1 = 0.1146 | 0.685
x1 = 0.1489 | 0.742
x1 = 0.187 | 0.817
x1 = 0.2425 | 0.926
x1 = 0.2811 | 1.009
x1 = 0.3123 | 1.082
x1 = 0.3733 | 1.237
x1 = 0.4192 | 1.356
x1 = 0.4582 | 1.467
x1 = 0.4988 | 1.587
x1 = 0.541 | 1.725
x1 = 0.5789 | 1.849
x1 = 0.608 | 1.948
x1 = 0.6351 | 2.044
x1 = 0.6756 | 2.194
x1 = 0.7372 | 2.433
x1 = 0.7781 | 2.596
x1 = 0.811 | 2.73
x1 = 0.8467 | 2.882
x1 = 0.8774 | 3.015
x1 = 0.9167 | 3.194
x1 = 0.9481 | 3.329
x1 = 0.9733 | 3.449
x2 = 0.0104 | 3.531
